One data set can be described thus: Aqueous solubility. The data set is classed as physicochemical. The following applies: aqueous medium at pH 7.4, pH 7.4, aqueous buffer.
A short description of data set [1]: Distribution coefficient 1‐octanol / aqueous phosphate buffer. The format is physicochemical. The following applies: pH 7.4.

SMILES strings stand for the structures. Values after ≈ are worked out from the molar mass of the structure shown.

For orientation: solubility means the concentration that dissolves in the medium under given conditions. A lower solubility goes with a poorly soluble substance. What is called logD is lipophilicity at a set pH, counting ionised and neutral species.

In turn, `O=C(NCc1cccc(CNC(=O)c2cc3ccccc3o2)c1)c1cc2ccccc2o1` [compound 28] showed a solubility in the data set “Aqueous solubility” of 3 µM (≈ 1.27 µg/mL). That is a single-digit micromolar value. On to `c1cc(CNCc2cc3ccccc3o2)cc(CNCc2cc3ccccc3o2)c1` [compound 29], for which the logD in data set [1] was determined as 4.6. This compound also registered a solubility in “Aqueous solubility” of 28 µM (≈ 11.1 µg/mL).
